From publication PMC4303209, “A novel phosphatidylinositol 3-kinase (PI3K) inhibitor directs a potent FOXO-dependent, p53-independent cell cycle arrest phenotype characterized by the differential induction of a subset of FOXO-regulated genes” (Breast Cancer Research : BCR, 2014)

System: MCF-7 breast cancer cells
Experiment: Microarray gene expression analysis (Agilent whole human genome 4 x 44K; compound vs DMSO, LIMMA log2 fold change)
Format: cell-based
Settings: Apoptosis genes

Oc1cccc(-c2nc(N3CCOCC3)c3oc4ncccc4c3n2)c1 [PI-103]
PML log2FC (Gene 5371): -0.410
POLR2G log2FC (Gene 5436): 0.401
POU3F3 log2FC (Gene 5455): -0.338
POU4F1 log2FC (Gene 5457): -0.488
POU4F3 log2FC (Gene 5459): -0.095
PPARD log2FC (Gene 5467): -0.189
PPARG log2FC (Gene 5468): -0.320
PPID log2FC (Gene 5481): -0.224
PPP1CA log2FC (Gene 5499): -0.185
PPP2CA log2FC (Gene 5515): -0.522
PPP2CB log2FC (Gene 5516): -0.272
PPP2R1B log2FC (Gene 5519): -0.663
PPP2R2B log2FC (Gene 5521): 0.085
PPP2R4 log2FC (Gene 5524): -0.318
PPP2R5C log2FC (Gene 5527): 0.778
PPP3CC log2FC (Gene 5533): 0.049
PPP3R1 log2FC (Gene 5534): -0.344
PPT1 log2FC (Gene 5538): 0.180
PRF1 log2FC (Gene 5551): 0.035
PRKAA1 log2FC (Gene 5562): 0.297
PRKAA2 log2FC (Gene 5563): 0.067
PRKCA log2FC (Gene 5578): -0.157
PRKCD log2FC (Gene 5580): 0.117
PRKCE log2FC (Gene 5581): -0.00329
PRKCG log2FC (Gene 5582): 0.076
PRKCH log2FC (Gene 5583): -0.184
PRKCI log2FC (Gene 5584): 0.477
PKN2 log2FC (Gene 5586): 0.513
PRKD1 log2FC (Gene 5587): 0.547
PRKCQ log2FC (Gene 5588): 0.186
PRKCZ log2FC (Gene 5590): 0.565
PRKDC log2FC (Gene 5591): 0.275
MAPK3 log2FC (Gene 5595): -0.116
MAPK7 log2FC (Gene 5598): -0.110
MAP2K6 log2FC (Gene 5608): 0.357
PRODH log2FC (Gene 5625): -0.118
LGMN log2FC (Gene 5641): -0.107
PSEN1 log2FC (Gene 5663): 0.372
PSEN2 log2FC (Gene 5664): -0.390
PSMA2 log2FC (Gene 5683): 0.170
PSMA3 log2FC (Gene 5684): 0.144
PSMA4 log2FC (Gene 5685): 0.470
PSMA6 log2FC (Gene 5687): 0.068
PSMB1 log2FC (Gene 5689): 0.009
PSMB2 log2FC (Gene 5690): -0.432
PSMB4 log2FC (Gene 5692): 0.171
PSMB5 log2FC (Gene 5693): -0.219
PSMB6 log2FC (Gene 5694): -0.080
PSMB9 log2FC (Gene 5698): -0.100
PSMB10 log2FC (Gene 5699): -0.116
PSMC1 log2FC (Gene 5700): -0.009
PSMC2 log2FC (Gene 5701): 0.279
PSMC3 log2FC (Gene 5702): -0.185
PSMC5 log2FC (Gene 5705): -0.314
PSMC6 log2FC (Gene 5706): 0.515
PSMD1 log2FC (Gene 5707): 0.029
PSMD3 log2FC (Gene 5709): -0.074
PSMD4 log2FC (Gene 5710): -0.036
PSMD5 log2FC (Gene 5711): 0.189
PSMD7 log2FC (Gene 5713): 0.00364
PSMD8 log2FC (Gene 5714): -0.122
PSMD9 log2FC (Gene 5715): -0.396
PSMD10 log2FC (Gene 5716): -0.344
PSMD11 log2FC (Gene 5717): -0.327
PSMD12 log2FC (Gene 5718): -0.768
PSME1 log2FC (Gene 5720): 0.313
PTEN log2FC (Gene 5728): 0.958
PTGFR log2FC (Gene 5737): -0.038
PTGIS log2FC (Gene 5740): -0.013
PTH log2FC (Gene 5741): -0.180
PTGS2 log2FC (Gene 5743): -0.053
PTK2 log2FC (Gene 5747): 0.040
PTPN6 log2FC (Gene 5777): 0.257
PTPRC log2FC (Gene 5788): -0.026
PTPRH log2FC (Gene 5794): 0.545
RAC1 log2FC (Gene 5879): -0.226
RAD9A log2FC (Gene 5883): 0.679
RAD21 log2FC (Gene 5885): 0.829
RAG1 log2FC (Gene 5896): 0.688
RALB log2FC (Gene 5899): 0.076
RARA log2FC (Gene 5914): -0.310
RARG log2FC (Gene 5916): -0.122
RASA1 log2FC (Gene 5921): 0.472
RASGRF2 log2FC (Gene 5924): 0.069
RB1 log2FC (Gene 5925): 0.674
RELA log2FC (Gene 5970): -0.351
DPF2 log2FC (Gene 5977): 0.525
REST log2FC (Gene 5978): 0.317
ROBO1 log2FC (Gene 6091): 0.307
ROBO2 log2FC (Gene 6092): 0.013
ROCK1 log2FC (Gene 6093): 0.642
RPS3A log2FC (Gene 6189): 0.496
RPS6 log2FC (Gene 6194): 0.259
RPS6KA1 log2FC (Gene 6195): -0.106
RPS6KA3 log2FC (Gene 6197): 0.273
RPS6KB1 log2FC (Gene 6198): 0.247
RPS27A log2FC (Gene 6233): 0.447
RTKN log2FC (Gene 6242): -0.055
SORT1 log2FC (Gene 6272): 0.382
S100A8 log2FC (Gene 6279): -0.346
S100B log2FC (Gene 6285): -0.112
SATB1 log2FC (Gene 6304): 0.836
SCT log2FC (Gene 6343): -0.026
CCL2 log2FC (Gene 6347): -0.193
CCL3 log2FC (Gene 6348): -0.075
CCL5 log2FC (Gene 6352): 0.070
CCL21 log2FC (Gene 6366): -0.020
CX3CL1 log2FC (Gene 6376): -0.245
CXCL12 log2FC (Gene 6387): -0.262
MAP2K4 log2FC (Gene 6416): -0.057
SET log2FC (Gene 6418): 0.155
SFRP1 log2FC (Gene 6422): 0.243
SFRP2 log2FC (Gene 6423): -0.008
SFRP4 log2FC (Gene 6424): 0.079
SFRP5 log2FC (Gene 6425): -0.036
ITSN1 log2FC (Gene 6453): 0.185
SHB log2FC (Gene 6461): -0.563
SHH log2FC (Gene 6469): -0.168
SIAH1 log2FC (Gene 6477): 0.170
SIAH2 log2FC (Gene 6478): -0.479
STIL log2FC (Gene 6491): 0.014
SIX1 log2FC (Gene 6495): -0.700
SKI log2FC (Gene 6497): -0.565
SLC9A1 log2FC (Gene 6548): -0.632
SLIT3 log2FC (Gene 6586): -0.267
SNAI2 log2FC (Gene 6591): 0.040
SMO log2FC (Gene 6608): 0.037
SMPD1 log2FC (Gene 6609): 0.629
SMPD2 log2FC (Gene 6610): -0.222
SIGLEC1 log2FC (Gene 6614): -0.395
SNAI1 log2FC (Gene 6615): -0.868
SNCB log2FC (Gene 6620): -0.584
SNCA log2FC (Gene 6622): -0.028
SOD2 log2FC (Gene 6648): 0.190
SON log2FC (Gene 6651): -0.153
SOX2 log2FC (Gene 6657): 0.228
SOX4 log2FC (Gene 6659): 0.369
SOX9 log2FC (Gene 6662): -2.014
SOX10 log2FC (Gene 6663): -0.037
SP100 log2FC (Gene 6672): 0.688
SPI1 log2FC (Gene 6688): -0.418
SPN log2FC (Gene 6693): 0.011
SRC log2FC (Gene 6714): -0.352
SRPK2 log2FC (Gene 6733): 0.776
SST log2FC (Gene 6750): 0.576
SSTR3 log2FC (Gene 6753): -0.180
STAR log2FC (Gene 6770): -0.178
STAT1 log2FC (Gene 6772): 0.221
STAT5A log2FC (Gene 6776): 0.392
STAT5B log2FC (Gene 6777): 0.109
STK4 log2FC (Gene 6789): -0.017
STK11 log2FC (Gene 6794): 0.00114
STXBP1 log2FC (Gene 6812): -0.400
SUPV3L1 log2FC (Gene 6832): 0.284
ADAM17 log2FC (Gene 6868): 0.527
TAF9 log2FC (Gene 6880): 0.095
MAP3K7 log2FC (Gene 6885): 0.00173
